Source: PubChem BioAssay AID493092 (Sanford-Burnham Center for Chemical Genomics, 2011)
Calls of active or inactive are those of the source.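 The calls were made as follows: active = averaged IC50 for reducing per-cell lipid droplet stain intensity under a set limit; inactive = the rest.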

Test system: AML12 mouse hepatocytes, BODIPY lipid droplet imaging
Experiment: inhibitors of hepatocyte lipid droplet formation, SAR follow-up, imaging, AML12 mouse hepatocytes, BODIPY staining (AID 493092)
Settings: cells fed 100 µM oleate overnight

Work on CCOc1ccccc1NC(=O)CCC(=O)Nc1ccccc1OCC yielded an IC50 of 1540 nM.

COc1cc(NC(=O)c2cccs2)c(OC)cc1NC(=O)CCC(=O)Nc1c(C)cccc1C was tested, and the IC50 was 2200 nM.

CCOc1ccc(CN(C)C(=O)CNC(=O)c2ccc3ccccc3c2)cc1OC gave an IC50 of 402 nM.

In the case of CCCc1cc(N2CCOCC2)n2nc(C)c(-c3ccccc3)c2n1, the IC50 is reported as 168 nM.

CCOc1cc2c(cc1OCC)CN(C(=O)CNC(=O)c1ccc3ccccc3c1)CC2 gave an IC50 of 311 nM.

CCN(CC)S(=O)(=O)c1ccc(C(=O)NCC(=O)NCCCc2ccccc2)cc1 was tested, and the IC50 was > 32000 nM (inactive).

CCOc1ccc(CCNC(=O)CCc2nc(-c3ccc(OC)cc3)no2)cc1OCC was tested, and the IC50 was 302 nM.

In the case of CC(OC(=O)c1ccc(O)cc1)C(=O)Nc1nc(-c2cccc([N+](=O)[O-])c2)cs1 (stereo not drawn), the IC50 is reported as > 32000 nM (inactive).
